Source: patent US20210317140A1, “Heterocyclic Compounds and Methods of Use” (MEDIVATION TECHNOLOGIES, INC, priority 2013, published 2021)

How the values were obtained:
ITK = target: T1, ITK (Homo sapiens, UniProt Q08881); assay: ITK kinase profiling (BTK protocol); assay type: biochemical; conditions: 0.3 μM compound
T1 construct: purchased Reaction Biology Corporation
T1 sequence (Q08881 1-620): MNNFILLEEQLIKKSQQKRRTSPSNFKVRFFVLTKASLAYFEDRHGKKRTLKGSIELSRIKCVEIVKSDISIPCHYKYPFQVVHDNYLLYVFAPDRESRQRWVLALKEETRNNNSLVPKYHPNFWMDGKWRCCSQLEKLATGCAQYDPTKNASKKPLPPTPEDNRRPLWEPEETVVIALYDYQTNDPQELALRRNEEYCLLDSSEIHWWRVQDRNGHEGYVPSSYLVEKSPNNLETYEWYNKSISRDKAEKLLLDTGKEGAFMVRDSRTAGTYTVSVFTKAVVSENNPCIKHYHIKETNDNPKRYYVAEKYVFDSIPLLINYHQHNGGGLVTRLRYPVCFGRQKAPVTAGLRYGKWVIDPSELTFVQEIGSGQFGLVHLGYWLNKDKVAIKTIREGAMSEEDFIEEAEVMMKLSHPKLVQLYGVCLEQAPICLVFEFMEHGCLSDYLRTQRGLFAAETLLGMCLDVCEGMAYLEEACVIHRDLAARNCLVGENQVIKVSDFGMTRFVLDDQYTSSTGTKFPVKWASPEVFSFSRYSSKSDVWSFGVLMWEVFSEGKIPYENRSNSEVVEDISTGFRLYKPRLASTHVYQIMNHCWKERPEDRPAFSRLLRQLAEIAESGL
Protocol: (§1) BTK assay: In vitro profiling protein kinases was performed using the “HotSpot” assay platform. Briefly, specific kinase/substrate pairs along with required cofactors were prepared in reaction buffer. Compounds were prepared as 10 mM stock solutions in DMSO. Compounds were delivered into the reaction, followed 15-20 minutes later by addition of a mixture of ATP (Sigma, St. Louis Mo.) and ^33P ATP (Perkin Elmer, Waltham Mass.) to a final concentration of 10 μM. […] IC50 values and curve fits were obtained using Prism (GraphPad Software). Buffer Conditions: 20 mM Hepes (pH 7.5), 10 mM MgCl2, 1 mM EGTA, 0.02% Brij35, 0.02 mg/mL BSA, 0.1 mM Na3VO4, 2 mM DTT, 1% DMSO.

CD69+B220+ cells = assay: B cell activation assay (IgD-stimulated splenocytes, CD69+B220+ cells by FACS); assay type: cell-based; conditions: IgD 3 μg/mL, 4 h; for CD69 @ 100 nM (% Inh): 100 nM compound, mouse splenocytes
Protocol: 1 Female mouse approximately 2 months old was euthanized with CO2 and the spleen removed. The tissue was homogenized with a polished glass microscope slide. The cells were collected in 5 mL complete medium (RPMI+10% FBS+pen/strep), placed in a 15 mL falcon tube and centrifuged at 500×g for 5 min. The supernatant was discarded and the pellet was resuspended in 3 mL of ACK lysis buffer (NH4Cl 0.17M, KHCO3 10 mM, EDTA-Na2 0.1 mM, pH 7.2), incubated at 37° C. for 5 min. 2 mL complete medium was added and the mixture centrifuged at 500×g for 5 min. The supernatant was discarded and the pellet resuspended in 1 mL complete medium. The mixture was passed through a […] cell strainer and collect in 50 mL falcon tube. Enough medium was added to have a total of 10 mL. The cells were counted and seeded in 24 or 48-well plate in 1 mL complete medium at 10^6 cells/mL. The plate was placed in a 37° C. incubator for 15 min. The cells were treated for 30 min at 37° C. with 100 nM test compound dissolved in 100% DMSO. 3 μL IgD (Accurate chemical and scientific corp.) was added at a final concentration of 3 μg/mL and the mixture incubated at 37° C. for 4 h. The cells were collected in 1.5 mL eppendorf tubes, centrifuged at 500×g for 5 min and then resuspended in 100 μL of PBS+2% FBS. The following antibodies were added: α-B220 PE (pharmingen #553090), α-CD69 APC (pharmingen #60689), live/dead fixable aqua dead cell stain kit (life technologies #L34957) all at 1:300, and the mixture incubated for 15 min at 4° C. in the dark. To this was added 900 μL of PBS+2% FBS and the mixture centrifuged at 500×g for 5 min. The supernatant was removed and the pellet resuspended in 300 μL of PBS+2% FBS and mixed well. The mixture was transferred to a cytometer tube. The samples were run in the FACS Canto II cytometer and quantified by the number of CD69+B220+ cells as a percentage of the total number of B220+ alive cells.

BTK = target: T2, BTK (Homo sapiens, UniProt Q06187); assay: BTK kinase assay (HotSpot, 33P ATP); assay type: biochemical; conditions: for BTK @ 0.1 μM (% Inh): 0.1 μM compound; for IC50: 10 dose IC50, 10 μM ATP; for BTK @ 0.01 μM (% Inh): 0.01 μM compound
T2 construct: purchased Reaction Biology Corporation
T2 sequence (Q06187 whole entry): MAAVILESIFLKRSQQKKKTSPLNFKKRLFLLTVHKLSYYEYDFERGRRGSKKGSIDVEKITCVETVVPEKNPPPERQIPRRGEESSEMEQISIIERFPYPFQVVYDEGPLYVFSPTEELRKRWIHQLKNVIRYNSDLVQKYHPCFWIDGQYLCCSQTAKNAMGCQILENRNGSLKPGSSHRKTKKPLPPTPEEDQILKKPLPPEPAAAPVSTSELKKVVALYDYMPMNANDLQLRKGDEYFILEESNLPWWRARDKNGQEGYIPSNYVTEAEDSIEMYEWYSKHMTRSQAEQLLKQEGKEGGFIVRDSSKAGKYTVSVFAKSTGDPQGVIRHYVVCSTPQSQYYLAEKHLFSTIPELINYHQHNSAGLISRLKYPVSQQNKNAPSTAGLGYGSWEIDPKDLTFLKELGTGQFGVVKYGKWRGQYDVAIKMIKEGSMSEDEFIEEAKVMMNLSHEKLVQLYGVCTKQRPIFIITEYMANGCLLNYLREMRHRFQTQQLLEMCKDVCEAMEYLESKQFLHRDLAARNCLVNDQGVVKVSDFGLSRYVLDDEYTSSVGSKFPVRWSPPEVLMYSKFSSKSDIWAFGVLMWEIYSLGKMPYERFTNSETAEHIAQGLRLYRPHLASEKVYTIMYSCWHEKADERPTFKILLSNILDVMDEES
Method in brief: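 In 20 mM Hepes (pH 7.5) with 10 mM MgCl2, 1 mM EGTA, 0.1 mM Na3VO4, 2 mM DTT, 0.02% Brij35, 0.02 mg/mL BSA and 1% DMSO, kinase and substrate were exposed to ten compound doses for 15–20 min.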

TEC = target: T3, TEC (Homo sapiens, UniProt P42680); assay: TEC kinase profiling (BTK protocol); assay type: biochemical; conditions: 0.3 μM compound
T3 construct: purchased Reaction Biology Corporation
T3 sequence (P42680 1-631): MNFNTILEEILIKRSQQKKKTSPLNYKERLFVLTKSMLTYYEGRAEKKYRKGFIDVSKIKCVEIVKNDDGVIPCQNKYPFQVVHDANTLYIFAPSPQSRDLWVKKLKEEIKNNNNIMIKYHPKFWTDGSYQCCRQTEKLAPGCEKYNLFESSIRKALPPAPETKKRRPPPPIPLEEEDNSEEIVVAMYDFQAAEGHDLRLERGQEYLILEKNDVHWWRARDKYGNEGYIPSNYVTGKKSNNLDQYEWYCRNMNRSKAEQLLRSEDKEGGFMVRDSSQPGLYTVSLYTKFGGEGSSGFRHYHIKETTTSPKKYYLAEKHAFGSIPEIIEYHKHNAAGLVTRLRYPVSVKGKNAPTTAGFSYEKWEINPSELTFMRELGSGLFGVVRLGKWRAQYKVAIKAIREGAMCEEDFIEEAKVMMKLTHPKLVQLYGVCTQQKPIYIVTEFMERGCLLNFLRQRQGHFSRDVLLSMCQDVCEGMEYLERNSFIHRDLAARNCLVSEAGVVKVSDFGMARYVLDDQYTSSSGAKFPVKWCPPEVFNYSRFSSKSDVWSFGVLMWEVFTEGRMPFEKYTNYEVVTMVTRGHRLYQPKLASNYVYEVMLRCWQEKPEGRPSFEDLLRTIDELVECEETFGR
Protocol: as §1

PI3Kα = target: T4, PI3Kα (Homo sapiens, UniProt P42336); assay: PI3Kα isoform profiling (PI3Kδ protocol); assay type: biochemical; conditions: 0.3 μM compound
T4 construct: purchased Reaction Biology Corporation
T4 sequence (P42336 whole entry, canonical isoform): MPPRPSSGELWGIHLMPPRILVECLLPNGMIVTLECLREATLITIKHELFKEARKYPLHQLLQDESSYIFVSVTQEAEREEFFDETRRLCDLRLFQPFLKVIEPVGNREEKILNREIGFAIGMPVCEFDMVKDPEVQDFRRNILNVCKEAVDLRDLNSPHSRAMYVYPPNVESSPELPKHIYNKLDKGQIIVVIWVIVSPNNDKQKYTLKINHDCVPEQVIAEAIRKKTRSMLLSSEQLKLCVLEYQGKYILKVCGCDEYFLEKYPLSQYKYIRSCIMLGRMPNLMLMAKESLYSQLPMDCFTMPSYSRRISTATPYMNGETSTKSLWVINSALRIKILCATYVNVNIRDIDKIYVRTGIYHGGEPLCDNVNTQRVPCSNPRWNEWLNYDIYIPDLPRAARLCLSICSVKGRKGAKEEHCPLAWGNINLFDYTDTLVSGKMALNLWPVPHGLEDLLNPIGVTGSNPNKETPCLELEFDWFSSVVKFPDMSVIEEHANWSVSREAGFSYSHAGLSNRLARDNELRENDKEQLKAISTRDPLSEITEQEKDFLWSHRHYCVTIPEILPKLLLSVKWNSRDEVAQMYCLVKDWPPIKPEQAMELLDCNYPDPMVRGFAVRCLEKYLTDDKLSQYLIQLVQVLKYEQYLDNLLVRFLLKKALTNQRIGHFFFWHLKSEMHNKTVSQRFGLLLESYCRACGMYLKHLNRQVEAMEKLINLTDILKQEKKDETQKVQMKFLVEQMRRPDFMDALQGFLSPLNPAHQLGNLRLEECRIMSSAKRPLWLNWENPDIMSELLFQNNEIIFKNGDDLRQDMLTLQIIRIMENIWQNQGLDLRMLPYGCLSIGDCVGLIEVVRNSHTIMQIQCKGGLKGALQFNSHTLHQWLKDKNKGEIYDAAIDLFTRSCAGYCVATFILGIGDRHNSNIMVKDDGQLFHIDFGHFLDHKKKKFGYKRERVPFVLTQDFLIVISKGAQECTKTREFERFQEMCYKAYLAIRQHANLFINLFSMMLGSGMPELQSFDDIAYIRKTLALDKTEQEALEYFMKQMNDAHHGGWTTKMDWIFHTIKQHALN
T4 sequence (P27986 whole entry partner, canonical isoform): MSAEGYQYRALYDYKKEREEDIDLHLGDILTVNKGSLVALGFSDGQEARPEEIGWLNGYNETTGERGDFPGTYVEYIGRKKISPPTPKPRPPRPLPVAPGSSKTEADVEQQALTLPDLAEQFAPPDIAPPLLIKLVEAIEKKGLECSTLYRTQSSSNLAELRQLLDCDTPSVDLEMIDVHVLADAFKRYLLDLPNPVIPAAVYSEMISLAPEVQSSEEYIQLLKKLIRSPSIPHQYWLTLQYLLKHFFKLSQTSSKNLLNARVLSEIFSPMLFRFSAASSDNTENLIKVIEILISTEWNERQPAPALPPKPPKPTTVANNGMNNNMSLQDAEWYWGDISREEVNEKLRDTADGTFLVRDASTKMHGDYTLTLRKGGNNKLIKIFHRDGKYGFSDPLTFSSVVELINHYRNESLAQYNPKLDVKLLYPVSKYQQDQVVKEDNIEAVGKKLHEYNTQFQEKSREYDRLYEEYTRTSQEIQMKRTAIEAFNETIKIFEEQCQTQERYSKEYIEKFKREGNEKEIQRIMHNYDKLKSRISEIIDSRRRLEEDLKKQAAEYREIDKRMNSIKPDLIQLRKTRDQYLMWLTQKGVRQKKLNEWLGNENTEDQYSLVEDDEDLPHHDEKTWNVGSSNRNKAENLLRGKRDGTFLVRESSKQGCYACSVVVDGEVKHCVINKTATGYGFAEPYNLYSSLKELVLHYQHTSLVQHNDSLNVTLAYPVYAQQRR
Excerpt: PI3Kδ assay: The PIP3 product is detected by displacement of biotin-PIP3 from an energy transfer complex consisting of Europium labeled anti-GST monoclonal antibody, a GST-tagged pleckstrin homology (PH) domain, biotinylated PIP3 and Streptavidin-Allophycocyanin (APC). Excitation of Europium in the complex results in an energy transfer to the APC and a fluorescent emission at 665 nm. The PIP3 product formed by PI 3-Kinase(h) activity displaces biotin-PIP3 from the complex resulting in a loss of energy transfer and thus a decrease in signal. This is a 3-step reaction: First, the kinase reaction with PIP2 substrate is carried out in the presence of ATP (10 μM), and the reaction is quenched with stop Solution, and then finally detect by adding Detection Mixture followed by incubation (10 min). Reaction procedure: 1) Prepare substrate in freshly prepared Reaction Buffer. 2) Deliver kinase into the substrate solution and gently mix. 3) Deliver compounds in 100% DMSO (1 μM) into the kinase reaction mixture by Acoustic technology (Echo550; nanoliter range), incubate for 10 min at RT. 4) Deliver ATP into the reaction mixture to initiate the reaction. 5) Incubate for 30 min at 30° C. 6) Quench the reaction with Stop Solution. 7) Add Detection Mixture, and incubate for overnight. 8) Measure HTRF: Ex=320 nm, ratio of Em=615 nm and Em=665 nm. The emission ratio is converted into μM PIP3 production based on PIP3 standard curves. The nonlinear regression to obtain the standard curve and IC50 values are performed using Graphpad Prism software. Assay Buffer: HEPES 50 mM (pH7.0), NaN3 0.02%, BSA 0.01%, Orthovanadate 0.1 mM, 1% DMSO. Detection buffer: HEPES 10 mM (pH7.0), BSA 0.02%, KF 0.16 M, EDTA 4 mM. Substrate: 10 μM PIP2 substrate (PI(4,5)P2).
Compounds of the invention were profiled in a 10 dose IC50 panel against PI3Kα, PI3Kβ, and PI3Kγ kinases, provided by Reaction Biology Corporation, applied to the PI3Kδ protocol provided in Example B1.

PI3Kδ = target: T5, PI3Kδ (Homo sapiens, UniProt O00329); assay: PI3Kδ kinase assay (HTRF, PIP3 detection); assay type: biochemical; conditions: for PI3Kδ @ 0.01 μM (% Inh): 0.01 μM compound; for PI3Kδ @ 0.1 μM (% Inh): 0.1 μM compound
T5 construct: purchased Reaction Biology Corporation
T5 sequence (O00329 whole entry): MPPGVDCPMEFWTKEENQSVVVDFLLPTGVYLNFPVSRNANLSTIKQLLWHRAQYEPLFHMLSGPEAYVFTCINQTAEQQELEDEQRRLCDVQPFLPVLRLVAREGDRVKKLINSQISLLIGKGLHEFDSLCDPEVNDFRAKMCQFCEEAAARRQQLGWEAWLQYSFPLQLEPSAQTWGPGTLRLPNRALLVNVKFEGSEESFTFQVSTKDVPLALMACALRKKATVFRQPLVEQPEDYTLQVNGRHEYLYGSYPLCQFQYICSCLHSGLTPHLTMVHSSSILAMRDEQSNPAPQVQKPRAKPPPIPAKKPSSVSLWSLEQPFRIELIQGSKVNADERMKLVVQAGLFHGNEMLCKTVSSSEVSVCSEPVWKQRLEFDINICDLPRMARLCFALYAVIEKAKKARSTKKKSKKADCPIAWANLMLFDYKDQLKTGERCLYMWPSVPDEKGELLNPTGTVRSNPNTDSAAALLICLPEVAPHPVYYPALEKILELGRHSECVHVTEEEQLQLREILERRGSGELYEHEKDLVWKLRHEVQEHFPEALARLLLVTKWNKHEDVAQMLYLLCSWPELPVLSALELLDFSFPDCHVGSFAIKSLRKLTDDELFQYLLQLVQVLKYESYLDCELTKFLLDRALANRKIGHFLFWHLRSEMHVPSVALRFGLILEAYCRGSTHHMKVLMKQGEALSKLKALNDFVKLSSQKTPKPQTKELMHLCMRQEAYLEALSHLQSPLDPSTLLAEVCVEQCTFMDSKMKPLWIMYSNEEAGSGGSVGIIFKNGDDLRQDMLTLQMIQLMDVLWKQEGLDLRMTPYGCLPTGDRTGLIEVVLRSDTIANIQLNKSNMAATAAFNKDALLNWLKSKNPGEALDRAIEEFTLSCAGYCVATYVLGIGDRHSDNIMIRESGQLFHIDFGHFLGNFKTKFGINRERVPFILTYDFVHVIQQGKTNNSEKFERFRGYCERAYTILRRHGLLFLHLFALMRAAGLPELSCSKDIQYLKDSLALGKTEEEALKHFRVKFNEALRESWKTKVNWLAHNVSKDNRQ
T5 sequence (P27986 whole entry partner): as the sequence (P27986 whole entry partner, canonical isoform) above
Method in brief: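 10-dose HTRF assay; kinase preincubated with compound 10 min at RT, then reacted with 10 μM PIP2 and 10 μM ATP for 30 min at 30 °C in HEPES pH 7.0 buffer. PIP3 product displaces biotin-PIP3 from the Eu/APC complex; signal converted to PIP3 via standard curve, IC50 by nonlinear regression.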

SMILES | ITK @ 0.3 μM (% Inh) (ITK) | CD69 @ 100 nM (% Inh) (CD69+B220+ cells) | BTK @ 0.1 μM (% Inh) (BTK; 10 μM ATP) | IC50 (BTK) [µM] | TEC @ 0.3 μM (% Inh) (TEC) | PI3Kα @ 0.3 μM (% Inh) (PI3Kα) | PI3Kδ @ 0.01 μM (% Inh) (PI3Kδ; 10 μM ATP) | PI3Kδ @ 0.1 μM (% Inh) (PI3Kδ; 10 μM ATP) | BTK @ 0.01 μM (% Inh) (BTK; 10 μM ATP) | PI3Kδ @ 1 μM (% Inh) (PI3Kδ; 1 μM compound, 10 μM ATP) | IC50 (PI3Kδ; 10 dose IC50, 10 μM ATP) [µM] | IC50 (CD69+B220+ cells; Mus musculus, Splenocyte) [µM] | BTK @ 1 μM (% Inh) (BTK; 1 μM compound, 10 μM ATP)
COc1ccc(-c2nn(C3CCc4ccccc4C3)c3ncnc(N)c23)cc1OC (racemic) [compound 17, 3-(3,4-dimethoxyphenyl)-1-(1,2,3,4-tetrahydronaphthalen-2-yl)-1H-pyrazolo[3,4-d]pyrimidin-4-amine] | −0.36 | 33.56 ± 13.70 (n = 5) % Inh | 41.16 | 0.164 | 11.45 |  |  |  |  |  |  |  | 
Nc1ncnc2c1c(-c1ccc(Br)c(O)c1)nn2C1CCc2ccccc2C1 (centres unmarked) [compound 8, 5-(4-amino-1-(1,2,3,4-tetrahydronaphthalen-2-yl)-1H-pyrazolo[3,4-d]pyrimidin-3-yl)-2-bromophenol] | 0.02 |  | 48.87 | 0.0261 | 20.18 | 76.76 |  |  |  |  |  |  | 
N#Cc1cc(-c2nn(C3Cc4ccccc4C3)c3ncnc(N)c23)cc(O)c1F [compound 120, 5-[4-amino-1-(2,3-dihydro-1H-inden-2-yl)-1H-pyrazolo[3,4-d]pyrimidin-3-yl]-2-fluoro-3-hydroxybenzonitrile] |  | −99.28 ± 22.26 (n = 3) % Inh | 1.41 |  |  |  | 77.84 | 91.68 | 93.67 |  |  |  | 
Nc1ncnc2c1c(-c1cc(O)c(F)c(F)c1)nn2C1Cc2ccc(F)cc2C1 (centres unmarked) [compound 128, 5-[4-amino-1-(5-fluoro-2,3-dihydro-1H-inden-2-yl)-1H-pyrazolo[3,4-d]pyrimidin-3-yl]-2,3-difluorophenol] |  | 49.29 ± 5.74 (n = 3) % Inh | 63.94 |  |  |  | 56.4 | 91.22 | 19.98 |  |  |  | 
NC(=O)c1cc(-c2nn(C3Cc4ccccc4C3)c3ncnc(N)c23)cc(O)c1F [compound 132, 5-[4-amino-1-(2,3-dihydro-1H-inden-2-yl)-1H-pyrazolo[3,4-d]pyrimidin-3-yl]-2-fluoro-3-hydroxybenzamide] |  | 27.67 ± 13.46 (n = 3) % Inh | 5.3 |  |  |  | 13.73 | 56.84 | 0.44 |  |  |  | 
Nc1ncnc2c1c(-c1cc(F)c3c(c1)NC(=O)CO3)nn2C1Cc2ccccc2C1 [compound 129, 6-[4-amino-1-(2,3-dihydro-1H-inden-2-yl)-1H-pyrazolo[3,4-d]pyrimidin-3-yl]-8-fluoro-3,4-dihydro-2H-1,4-benzoxazin-3-one] |  | 12.5 ± 13.16 (n = 3) % Inh | 18.99 |  |  |  | 8.3 | 19.42 | 6.57 |  |  |  | 
Nc1ncnc2c1c(-c1cc(O)cc(Cl)c1)nn2C1Cc2ccccc2C1 [Compound No. 67, 3-[4-amino-1-(2,3-dihydro-1H-inden-2-yl)-1H-pyrazolo[3,4-d]pyrimidin-3-yl]-5-chlorophenol] |  | 65.11 ± 18.09 (n = 6) % Inh | 43.63 | 0.142 |  |  |  | 84.5 |  | 90.92 | 0.0041 | 0.109 ± 0.057 | 87.64
